Data as given in patent US9980927B2, “Use of tapentadol for inhibiting and/or treating depression and anxiety” (Gruenenthal GmbH, priority 2011, dated 2018).

How the values were obtained:
Format in all cases: in vivo, human patients
[1] = system: patients with inadequately managed, severe chronic low back pain with or without a neuropathic pain component; assay: Patient Global Impression of Change (PGIC), same trial
From the text: (§1) This was a multicenter, multinational, open-label, effectiveness phase IIIb trial to evaluate effectiveness and safety of tapentadol prolonged release treatment in patients with inadequately managed, severe chronic low back pain with or without a neuropathic pain component. Patients taking WHO Step II analgesics discontinued those analgesics before starting study medication; patients taking Step I analgesics and/or centrally acting co-analgesics continued on the same dose. […] All patients received tapentadol prolonged release (50-250 mg bid) for up to 12 weeks (5-week titration period and a 7-week maintenance period). Tapentadol immediate release (IR) 50 mg (twice a day, hours apart) was permitted (combined total daily dose of tapentadol prolonged release and tapentadol IR, 500 mg/day). The primary efficacy endpoint was the change from Baseline to Week 6 (when tapentadol prolonged release doses were stable) in average pain intensity on the 11-point NRS-3 using the last observation carried forward (LOCF) for imputing missing scores. The painDETECT questionnaire was used to evaluate the likelihood of a neuropathic pain component of low back pain; patients were classified as painDETECT “negative,” “unclear,” or “positive.” The population of patients classified as painDETECT negative was limited to approximately 30% of the total population.
(§2) All subjects completed Short Form-36 (SF-36) and EuroQol-5 Dimension (EQ-5D) questionnaires and the Hospital Anxiety and Depression Scale (HADS). The Patient Global Impression of Change (PGIC) and Clinical global impression of change (CGIC) were also used as secondary endpoints. For both tests, patients completed the statement, “since I began trial treatment, I would rate my overall condition as,” using 7 possible responses (“very much worse” to “very much improved”). Adverse events were recorded throughout the trial.

[2] = system: patients with inadequately managed, severe chronic low back pain with or without a neuropathic pain component; assay: Clinical global impression of change (CGIC), same trial
From the text: as §1, §2

[3] = system: patients with inadequately managed, severe chronic low back pain with or without a neuropathic pain component; assay: Subject satisfaction with previous/new treatment, same trial; details: 0.0% at Baseline
From the text: as §1

SMILES: CC[C@@H](c1cccc(O)c1)[C@@H](C)CN(C)C [tapentadol, (−)-(1R,2R)-3-(3-dimethylamino-1-ethyl-2-methyl-propyl)-phenol]
- percentage of patients reporting “very much improved” or “much improved” on the PGIC ([1]; Week 1 (26/172)): 15.1%
- percentage of patients reporting “very much improved” or “much improved” on the PGIC ([1]; Week 6 (67/138)): 48.6%
- percentage of patients reporting “very much improved” or “much improved” on the PGIC ([1]; Week 12 (61/91)): 67.1%
- percentage of patients reporting “very much improved” or “much improved” on the CGIC ([2]; Week 1 (26/172)): 15.1%
- percentage of patients reporting “very much improved” or “much improved” on the CGIC ([2]; Week 6 (70/138)): 50.7%
- percentage of patients reporting “very much improved” or “much improved” on the CGIC ([2]; Week 12 (62/91)): 68.2%
- percentage of patients rating satisfaction with treatment “excellent” or “very good” ([3]; Week 6 (41/138)): 29.7%
- percentage of patients rating satisfaction with treatment “excellent” or “very good” ([3]; Week 12 (48/91)): 52.8%
